Laboratory results from PubChem BioAssay (NCI).
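96-well plates; 48 h exposure; 5 concentrations. Endpoints by linear interpolation between flanking doses. Not reached: highest tested concentration assigned. GI50: concentration for 50% inhibition of growth. At the TGI there is no net growth.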

Key:
Assay in all cases: NCI anticancer screen, dose series, 48 h
[1] = system: HT29 colon
[2] = system: DLD-1 colon
[3] = system: 786-0 renal
[4] = system: NCI-H23 lung
[5] = system: TK-10 renal
[6] = system: NCI-H460 lung
[7] = system: OVCAR-8 ovarian
[8] = system: M19-MEL melanoma
[9] = system: BT-549 breast
[10] = system: HS 578T breast

For `CCN(c1ccc(Br)cc1)c1c(Br)c(=O)nc2ccccn12`, the TGI [1] was over 100 µM, the TGI [2] was over 100 µM and the TGI [3] was over 100 µM. It also gave a TGI [4] of over 100 µM, a TGI [5] of over 100 µM and a TGI [6] of over 100 µM. For the same compound, the TGI [7] was over 100 µM and the TGI [8] was over 100 µM.
Compound `CN1CC(C(=O)C2C(=O)c3ccccc3C2=O)C(=O)C(=O)C(C(=O)C2C(=O)c3ccccc3C2=O)C1` (centres undefined) has a TGI [1] of over 100 µM, a TGI [2] of over 100 µM and a TGI [3] of over 100 µM. It also gave a TGI [4] of over 100 µM, a TGI [5] of over 100 µM and a TGI [6] of over 100 µM. The TGI [7] was over 100 µM.
`c1ccc2c(c1)[nH]c1cnc3c4cccnc4[nH]c3c12` showed a TGI [1] of 34.6 µM, a TGI [2] of 33.5 µM and a TGI [3] of 31.7 µM. It also gave a TGI [4] of 62.1 µM, a TGI [5] of 26.1 µM and a TGI [6] of 50.1 µM. For the same compound, the TGI [7] was 32 µM and the TGI [8] was 31.5 µM.
For `O=C(N/N=C/c1ccc([N+](=O)[O-])cc1)c1ccc2nc(-c3ccc(Cl)cc3)[nH]c2c1`, the GI50 [9] was 2.84 µM, the TGI [9] was 9.71 µM and the GI50 [1] was 3.02 µM. It also gave a TGI [1] of over 100 µM, a GI50 [3] of 3.92 µM and a TGI [3] of 15.7 µM. The GI50 [4] was 1.85 µM, the TGI [4] was 11.5 µM and the GI50 [5] was 8.99 µM. For the same compound, the TGI [5] was 42.3 µM, the GI50 [6] was 2.1 µM and the TGI [6] was 4.49 µM. It also gave a GI50 [7] of 2.89 µM, a TGI [7] of 13.7 µM and a GI50 [10] of 3.58 µM. It also gave a TGI [10] of 24.4 µM.
In the case of `Cc1c2c[n+](C(C)C)ccc2c(C)c2c1[nH]c1ccccc12`, the GI50 [9] is reported as 1.72 µM, the TGI [9] is reported as 11.2 µM and the GI50 [1] is reported as 3.15 µM. For the same compound, the TGI [1] was 58.8 µM, the GI50 [3] was 1.53 µM and the TGI [3] was over 100 µM. The GI50 [4] was 1.75 µM, the TGI [4] was 15.7 µM and the GI50 [5] was 21.1 µM. It also gave a TGI [5] of over 100 µM, a GI50 [6] of 2.44 µM and a TGI [6] of 10.9 µM. For the same compound, the GI50 [7] was 1.46 µM, the TGI [7] was 32.1 µM and the GI50 [10] was 1.13 µM. It also gave a TGI [10] of 19 µM.
`COc1ccc(Cl)cc1NC(=O)C(Br)C(Br)C(=O)O` (centres undefined) was tested, and the GI50 [9] was 3.23 µM, the TGI [9] was 13 µM and the GI50 [1] was 25.6 µM. It also gave a TGI [1] of over 68.3 µM, a GI50 [3] of 21.7 µM and a TGI [3] of 47.7 µM. The GI50 [4] was 11.9 µM, the TGI [4] was 47.8 µM and the GI50 [5] was 6.59 µM. The TGI [5] was 28 µM, the GI50 [6] was 38 µM and the TGI [6] was over 100 µM. For the same compound, the GI50 [7] was 9.01 µM, the TGI [7] was over 100 µM and the GI50 [10] was 43.9 µM. For the same compound, the TGI [10] was over 100 µM.
Work on `NC(=O)C(c1ccccc1)N1CCOCC1` (centres undefined) yielded a TGI [1] of over 100 µM, a TGI [2] of over 100 µM and a TGI [3] of over 100 µM. The TGI [4] was over 100 µM, the TGI [5] was over 100 µM and the TGI [6] was over 100 µM. It also gave a TGI [7] of over 100 µM and a TGI [8] of over 100 µM.
In the case of `CN1CCN(Cc2ccc(NC(=O)c3ccc(C#Cc4c(N)ncc5ccc(F)cc45)cc3)cc2C(F)(F)F)CC1`, the GI50 [9] is reported as 3.19 µM, the TGI [9] is reported as 9.68 µM and the GI50 [1] is reported as 0.876 µM. It also gave a TGI [1] of 1.86 µM, a GI50 [3] of 0.924 µM and a TGI [3] of 1.73 µM. For the same compound, the GI50 [4] was 0.968 µM, the TGI [4] was 1.89 µM and the GI50 [5] was 0.977 µM. The TGI [5] was 1.79 µM, the GI50 [6] was 1.06 µM and the TGI [6] was 2.02 µM. The GI50 [7] was 0.955 µM, the TGI [7] was 1.81 µM and the GI50 [10] was 1.05 µM. It also gave a TGI [10] of 3.65 µM.
In the case of `O=C(Nc1ccccc1O)c1ccc(Oc2cccc(C(=O)Nc3ccccc3O)c2)cc1`, the GI50 [9] is reported as 2.53 µM, the TGI [9] is reported as 27 µM and the GI50 [1] is reported as 4.93 µM. For the same compound, the TGI [1] was 16.9 µM, the GI50 [3] was 2.84 µM and the TGI [3] was 12.2 µM. For the same compound, the GI50 [4] was 2.99 µM, the TGI [4] was 11.3 µM and the GI50 [5] was 7.64 µM. For the same compound, the TGI [5] was 30.2 µM, the GI50 [6] was 1.21 µM and the TGI [6] was 11 µM. The GI50 [7] was 2.03 µM, the TGI [7] was 11.2 µM and the GI50 [10] was 2.05 µM. The TGI [10] was 12.2 µM.
Compound `Cc1ccc2c(O)c(O)cc(NC(C)CCCN)c2n1` (centres undefined) has a GI50 [9] of 32.1 µM, a TGI [9] of over 68.6 µM and a GI50 [1] of 7.04 µM. It also gave a TGI [1] of over 72.4 µM, a GI50 [3] of over 100 µM and a TGI [3] of over 100 µM. It also gave a GI50 [4] of 3.3 µM, a TGI [4] of 19.3 µM and a GI50 [5] of over 100 µM. For the same compound, the TGI [5] was over 100 µM, the GI50 [6] was 36.4 µM and the TGI [6] was over 100 µM. The GI50 [7] was 4.35 µM, the TGI [7] was over 100 µM and the GI50 [10] was 13.9 µM. The TGI [10] was 49.4 µM.
`O=C(Cc1cccc(OC(F)(F)F)c1)Nc1ccc(CCCCc2nnc(NC(=O)Cc3ccccn3)s2)nn1` gave a GI50 [9] of 27.9 µM, a TGI [9] of over 100 µM and a GI50 [1] of 24.3 µM. For the same compound, the TGI [1] was 96.7 µM, the GI50 [3] was 11.4 µM and the TGI [3] was 27.5 µM. It also gave a GI50 [4] of 13.1 µM, a TGI [4] of 45.8 µM and a GI50 [5] of 11.7 µM. The TGI [5] was 24.5 µM, the GI50 [6] was 13.9 µM and the TGI [6] was 48.3 µM. The GI50 [7] was 15.8 µM, the TGI [7] was 54.8 µM and the GI50 [10] was 13.8 µM. The TGI [10] was 40.2 µM.
`O=C(C(=O)N1CC2C=CC1CC2)c1c[nH]c2ccccc12` (centres undefined) showed a TGI [1] of over 100 µM, a TGI [2] of over 100 µM and a TGI [3] of over 100 µM. It also gave a TGI [5] of over 100 µM, a TGI [6] of over 100 µM and a TGI [7] of over 100 µM. For the same compound, the TGI [8] was over 100 µM.
`Fc1ccc(C2SCc3nc4ccccc4n32)cc1` (centres undefined) showed a TGI [1] of over 100 µM, a TGI [2] of over 100 µM and a TGI [3] of over 100 µM. The TGI [4] was over 100 µM, the TGI [5] was 72 µM and the TGI [6] was over 100 µM. It also gave a TGI [7] of over 100 µM and a TGI [8] of over 100 µM.
Work on `Cc1ccc(SC2=CC(=O)c3nc4ccccc4c4ccnc2c34)cc1` yielded a GI50 [9] of over 62.9 µM, a TGI [9] of over 100 µM and a GI50 [1] of 38 µM. It also gave a TGI [1] of over 100 µM, a GI50 [3] of 24.5 µM and a TGI [3] of over 58.1 µM. The GI50 [4] was 24.7 µM, the TGI [4] was over 73.9 µM and the GI50 [5] was 53.6 µM. It also gave a TGI [5] of over 100 µM, a GI50 [6] of 61.4 µM and a TGI [6] of over 100 µM. For the same compound, the GI50 [7] was 18 µM, the TGI [7] was 41.2 µM and the GI50 [10] was 43.8 µM. For the same compound, the TGI [10] was over 95 µM.
